Reference: patent US12529022B2, “Human organ-on-chip models for predictive screening” (The Trustees of Columbia University in the City of New York, priority 2018, dated 2026)

Assays:
[1] = patients with other types of cancers; cited from earlier work
human cardiac OOC [2] = assay: Cardiac OOC extracellular LDH cytotoxicity assay; type: cell-based; details: after linsitinib exposure
Procedure: (§1) Tissues were randomly assigned to experimental groups. Medium was changed every day. Cardiac tissues were exposed to linsitinib for 3 days.
Cell viability: Cancer cell viability was measured for GFP-Luciferase labelled cancer cells using ONE-Glo luciferase substrate that was prepared according to manufacturer's protocol (Promega). Samples were collected following 3, 7, and 21-day cycles of Linsitinib treatment. Cardiac cell viability was assessed through the Pierce LDH Cytotoxicity Assay Kit (Thermo Fisher Scientific). Samples were collected at 0 h, 1 h and 72 h.

human cardiac OOC [3] = assay: Cardiac OOC hydrogen peroxide (ROS-Glo H2O2) assay; type: cell-based; details: after linsitinib treatment
Procedure: as §1
Hydrogen peroxide assay: After drug treatment, hydrogen peroxide (H2O2) levels in cardiac tissues were measured using ROS-Glo™ H2O2 Assay (Promega).

human cardiac OOC [4] = assay: Cardiac OOC calcium transients, isoproterenol response after linsitinib exposure; type: cell-based; details: tissues exposed to linsitinib, then 1 μM isoproterenol
Procedure: Isoproterenol response: Samples were loaded with Fluo-4, AM, cell permeant (Invitrogen) in RPMI Medium 1630 supplemented with B27 for 30 min at 37° C. […] Videos were analysed in MATLAB using a custom script that calculated the temporal changes in calcium fluorescence intensity. Each frame was normalized to a baseline background region chosen by the user to give baseline-corrected changes in minimum and maximum fluorescence values for each frame. The temporal changes in fluorescence intensity were presented in calcium transient traces from which the measurements were obtained. The calcium transient timing was determined as the peak-to-peak values of two successive beats as defined by the peak maxima.
Calcium transient traces were also analyzed 10 minutes after exposure to 1 μM isoproterenol hydrochloride, diluted in RPMI Medium 1630 supplemented with B27™.

TE-ES and TE-OS models = assay: Linsitinib titration on TE-ES and TE-OS bone tumor models, luminescence as cancer cell viability; type: cell-based, human; details: 21-day treatment cycle
Procedure: The cells were allowed to attach for 2 hours, and then supplemented with additional mesenchymal stem cell medium overnight. The following day, osteogenic differentiation of the seeded cells was initiated by addition of low glucose DMEM supplemented with 1 μM dexamethasone (Sigma-Aldrich), 10 mM β-glycerophosphate (SigmaAldrich), and 50 μM L-ascorbic acid-2-phosphate (Sigma Aldrich). Each scaffold was incubated in 4 mL of osteogenic media, with media changes three times a week, for 3 weeks, allowing for the MSCs to differentiate into functional, maturing osteoblasts. Two weeks following the initiation of osteogenic differentiation, aggregates of tumor cells were prepared as described previously. Briefly, 0.3×10^6 cells were used to form ES aggregates and 0.5×10^6 cells were used to form OS aggregates. After 1 week of culture, the primary bone tumor aggregates were infused into the differentiated osteoblastseeded bone scaffolds (3 aggregates per scaffold, placed apart of each other). […] Cell viability: Cancer cell viability was measured for GFP-Luciferase labelled cancer cells using ONE-Glo luciferase substrate that was prepared according to manufacturer's protocol (Promega). […] Cardiac cell viability was assessed through the Pierce LDH Cytotoxicity Assay Kit (Thermo Fisher Scientific). […]

[5] = tested on: metastatic (KHOS/NP cell line derived) osteosarcoma OOC; assay: Metastatic osteosarcoma OOC, luciferase luminescence (cancer cell number and viability); type: cell-based, human; details: 12 μM
Procedure: Drug treatment experiments recapitulating the patient treatment regimens and the patient plasma concentration of 12 μM of linsitinib were then carried out on the nonmetastatic and metastatic TE-ES and OS models. FIGS. 44 and 45 are graphs illustrating non-metastatic (U2-OS cell line derived, FIG. 44) and metastatic (KHOS/NP cell line derived, FIG. 45) osteosarcoma OOCs exposed to linsitinib (12 μM) according to the drug treatment regimen outlined. Luminescence as a function of cancer cell number and viability was measured (mean±s.e.m., n=6 for day 3, and n=3 for day 7 and 21, biologically independent per group). Significance was determined by unpaired two-tailed Student's t test of treatment group at specific day with respective control; *P<0.05; **P<0.01; ***P<0.001. Tissue engineered bone tumor models: Using an established protocol, expanded MSCs were seeded into the bone matrix scaffolds (4 mm×4 mm×1 mm) at a concentration of 10^6 cells per scaffold, using 40 μL of medium. The cells were allowed to attach for 2 hours, and then supplemented with additional mesenchymal stem cell medium overnight. The following day, osteogenic differentiation of the seeded cells was initiated by addition of low glucose DMEM supplemented with 1 μM dexamethasone (Sigma-Aldrich), 10 mM β-glycerophosphate (SigmaAldrich), and 50 μM L-ascorbic acid-2-phosphate (Sigma Aldrich). Each scaffold was incubated in 4 mL of osteogenic media, with media changes three times a week, for 3 weeks, allowing for the MSCs to differentiate into functional, maturing osteoblasts. Two weeks following the initiation of osteogenic differentiation, aggregates of tumor cells were prepared as described previously. Briefly, 0.3×10^6 cells were used to form ES aggregates and 0.5×10^6 cells were used to form OS aggregates. […] Cell viability: Cancer cell viability was measured for GFP-Luciferase labelled cancer cells using ONE-Glo luciferase substrate that was prepared according to manufacturer's protocol (Promega). […] Cardiac cell viability was assessed through the Pierce LDH Cytotoxicity Assay Kit (Thermo Fisher Scientific). […]

C[C@]1(O)C[C@@H](c2nc(-c3ccc4ccc(-c5ccccc5)nc4c3)c3c(N)nccn32)C1 [linsitinib, Linsitinib (OSI-906)]
cardiotoxicity in clinical trials [1]: proarrhythmic events, like tachycardia and atrial fibrillation | extracellular lactate dehydrogenase (LDH) (human cardiac OOC [2]): increased levels | levels of reactive oxygen species (hydrogen peroxide formation) (human cardiac OOC [3]): not observed | inotropic response to isoproterenol (human cardiac OOC [4]): inotropic responses were not observed | proarrhythmic events in calcium transients (human cardiac OOC [4]): proarrhthymic events | luminescence signal as indicator of cancer cell viability (TE-ES and TE-OS models; 12 μM, ES and OS models): significant responses | luminescence signal as indicator of cancer cell viability, titration (TE-ES and TE-OS models; linsitinib titration): dose response | luminescence (cancer cell number and viability) vs control ([5]; after 3 days): significant drug response | drug efficacy ([5]; by day 7): stopped being effective | course of tumor ([5]; day 7 to D21): rapidly expand before stabilizing by D21
